Test results from ChEMBL document CHEMBL5331122, “Structure-Activity Relationship Study of Antimicrobial Peptide PE2 Delivered Novel Linear Derivatives with Potential of Eradicating Biofilms and Low Incidence of Drug Resistance” (J Med Chem, 2023).
≈ marks a conversion by molar mass, not a printed value. Calls of active or inactive are those of the source. The calls are words filed in the database; no cut-off is given here. Where a SMILES comes first, the peptide text is derived from it. Bridges are numbered along the chain shown (N, C = ends). [ ]: non-standard residue; d: D form. The star is where a group is joined. Heptanoyl(6-Me) = CC(C)CCCCC(=O)*; Dab = NCC[C@H](N)C(=O)O

Legend:
Escherichia coli [1] = experiment: Antibacterial activity against Escherichia coli ATCC 25922 assessed as bacterial growth inhibition incubated for 18 hrs by broth microdilution method; type: functional
Klebsiella pneumoniae = experiment: Antibacterial activity against Klebsiella pneumoniae ATCC 700603 assessed as bacterial growth inhibition incubated for 18 hrs by broth microdilution method; type: functional
Pseudomonas aeruginosa = experiment: Antibacterial activity against Pseudomonas aeruginosa ATCC 27853 assessed as bacterial growth inhibition incubated for 18 hrs by broth microdilution method; type: functional
Staphylococcus aureus [2] = experiment: Antibacterial activity against Staphylococcus aureus ATCC 25923 assessed as bacterial growth inhibition incubated for 18 hrs by broth microdilution method; type: functional
Bacillus subtilis = experiment: Antibacterial activity against Bacillus subtilis ATCC 23857 assessed as bacterial growth inhibition incubated for 18 hrs by broth microdilution method; type: functional
Enterococcus faecalis = experiment: Antibacterial activity against Enterococcus faecalis ATCC 29212 assessed as bacterial growth inhibition incubated for 18 hrs by broth microdilution method; type: functional
Escherichia coli [3] = experiment: Induction of drug resistance against Escherichia coli ATCC 25922measured after 5 to 7 passages by sequential passaging method; type: functional
Escherichia coli [4] = experiment: Induction of drug resistance against Escherichia coli ATCC 25922 assessed as fold increase in MIC measured upto 15 passages by sequential passaging method; type: functional
Staphylococcus aureus [5] = experiment: Induction of drug resistance against Staphylococcus aureus ATCC 25923 assessed as fold increase in MIC measured upto 15 passages by sequential passaging method; type: functional
Escherichia coli [6] = experiment: Antibacterial activity against rifampicin-resistant Escherichia coli ATCC 25922 assessed as reduction in bacterial growth incubated for 18 hrs by broth microdilution method; type: functional
Staphylococcus aureus [7] = experiment: Antibacterial activity against rifampicin-resistant Staphylococcus aureus ATCC 25923 assessed as reduction in bacterial growth incubated for 18 hrs by broth microdilution method; type: functional
Erythrocyte = experiment: Hemolytic activity in mouse red blood cell assessed as hemolysis incubated for 1 hr; type: toxicity, cell-based; details: dose 4-256 µg/ml
[8] = Hemolytic activity in mouse red blood cells assessed as hemolysis at 256 microg/ml incubated for 1 hr relative to control; type: toxicity, cell-based, Erythrocyte; details: red blood cells (erythrocytes), at 256 µg/mL, read-out: Activity
Escherichia coli [9] = experiment: Antibacterial activity against Escherichia coli ATCC 25922 assessed as fold increase in MIC in presence of NaCl; type: functional
Escherichia coli [10] = experiment: Antibacterial activity against Escherichia coli ATCC 25922 assessed as fold increase in MIC in presence of KCl; type: functional
Escherichia coli [11] = experiment: Antibacterial activity against Escherichia coli ATCC 25922 assessed as fold increase in MIC in presence of MgCl2; type: functional
Escherichia coli [12] = experiment: Antibacterial activity against Escherichia coli ATCC 25922 assessed as fold increase in MIC in presence of ZnCl2; type: functional
Escherichia coli [13] = experiment: Antibacterial activity against Escherichia coli ATCC 25922 assessed as fold increase in MIC in presence of FeCl3; type: functional
Staphylococcus aureus [14] = experiment: Antibacterial activity against Staphylococcus aureus ATCC 25923 assessed as fold increase in MIC in presence of NaCl; type: functional
Staphylococcus aureus [15] = experiment: Antibacterial activity against Staphylococcus aureus ATCC 25923 assessed as fold increase in MIC in presence of KCl; type: functional
Staphylococcus aureus [16] = experiment: Antibacterial activity against Staphylococcus aureus ATCC 25923 assessed as fold increase in MIC in presence of MgCl2; type: functional
Staphylococcus aureus [17] = experiment: Antibacterial activity against Staphylococcus aureus ATCC 25923 assessed as fold increase in MIC in presence of ZnCl2; type: functional
Staphylococcus aureus [18] = experiment: Antibacterial activity against Staphylococcus aureus ATCC 25923 assessed as fold increase in MIC in presence of FeCl3; type: functional

Work on CO[C@H]1/C=C/O[C@@]2(C)Oc3c(C)c(O)c4c(O)c(c(/C=N/N5CCN(C)CC5)c(O)c4c3C2=O)NC(=O)/C(C)=C\C=C\[C@H](C)[C@H](O)[C@@H](C)[C@@H](O)[C@@H](C)[C@H](OC(C)=O)[C@@H]1C [RIFAMPIN] yielded an MIC (Escherichia coli [1]) of 4 µg/mL (≈ 4.86 µM), an MIC (Klebsiella pneumoniae) of 32 µg/mL (≈ 38.9 µM) and an MIC (Pseudomonas aeruginosa) of 32 µg/mL (≈ 38.9 µM). It also gave an MIC (Staphylococcus aureus [2]) of under 1 µg/mL, an MIC (Bacillus subtilis) of under 1 µg/mL and an MIC (Enterococcus faecalis) of under 1 µg/mL. For the same compound, the Activity (Escherichia coli [3]) was “Active”, the fold change (FC) (Escherichia coli [4]) was 64 and the fold change (FC) (Staphylococcus aureus [5]) was 512. The MIC (Escherichia coli [6]) was 4100 µg/mL (≈ 4980 µM) and the MIC (Staphylococcus aureus [7]) was 2050 µg/mL (≈ 2490 µM).

In the case of CCCCCC(=O)N[C@@H](CCN)C(=O)N[C@H](C(=O)N[C@@H](CCN)C(=O)N[C@H](Cc1ccccc1)C(=O)N[C@@H](CC(C)C)C(=O)N[C@@H](CCN)C(=O)N[C@@H](C(=O)N[C@@H](CC(C)C)C(=O)N[C@H](C(N)=O)[C@@H](C)CC)C(C)C)[C@@H](C)CC, the MIC (Escherichia coli [1]) is reported as 16 µg/mL (≈ 14.4 µM), the MIC (Klebsiella pneumoniae) is reported as 32 µg/mL (≈ 28.7 µM) and the MIC (Pseudomonas aeruginosa) is reported as 4 µg/mL (≈ 3.59 µM). The MIC (Staphylococcus aureus [2]) was 32 µg/mL (≈ 28.7 µM), the MIC (Bacillus subtilis) was 8 µg/mL (≈ 7.18 µM) and the MIC (Enterococcus faecalis) was 128 µg/mL (≈ 115 µM). The HC10 (Erythrocyte) was 512 µg/mL and the hemolysis at 1 h, 256 µg/mL [8] was under 5%.

For CC[C@H](C)[C@H](NC(=O)[C@H](CCN)NC(=O)CC(O)C(C)C)C(=O)N[C@@H](CCN)C(=O)N[C@H](Cc1ccccc1)C(=O)N[C@@H](CC(C)C)C(=O)N[C@@H](CCN)C(=O)N[C@@H](C(=O)N[C@@H](CC(C)C)C(=O)N[C@H](C(N)=O)[C@@H](C)O)C(C)C (stereo not given in full), the MIC (Escherichia coli [1]) was 32 µg/mL (≈ 28.6 µM), the MIC (Klebsiella pneumoniae) was 64 µg/mL (≈ 57.2 µM) and the MIC (Pseudomonas aeruginosa) was 4 µg/mL (≈ 3.58 µM). The MIC (Staphylococcus aureus [2]) was over 128 µg/mL, the MIC (Bacillus subtilis) was 8 µg/mL (≈ 7.15 µM) and the MIC (Enterococcus faecalis) was over 128 µg/mL. It also gave an HC10 (Erythrocyte) of 512 µg/mL and a hemolysis at 1 h, 256 µg/mL [8] of under 2%.

Work on CCCCCC(=O)N[C@@H](CCN)C(=O)N[C@H](C(=O)N[C@@H](CCN)C(=O)N[C@H](Cc1ccccc1)C(=O)N[C@@H](CC(C)C)C(=O)N[C@H]1CCNC(=O)[C@H]([C@@H](C)O)NC(=O)[C@H](CC(C)C)NC(=O)[C@@H](C(C)C)NC1=O)[C@@H](C)CC yielded an MIC (Escherichia coli [1]) of 16 µg/mL (≈ 14.7 µM), an MIC (Klebsiella pneumoniae) of 128 µg/mL (≈ 118 µM) and an MIC (Pseudomonas aeruginosa) of 128 µg/mL (≈ 118 µM). It also gave an MIC (Staphylococcus aureus [2]) of 32 µg/mL (≈ 29.5 µM), an MIC (Bacillus subtilis) of 4 µg/mL (≈ 3.69 µM) and an MIC (Enterococcus faecalis) of over 128 µg/mL. For the same compound, the HC10 (Erythrocyte) was 512 µg/mL and the hemolysis at 1 h, 256 µg/mL [8] was under 5%.

With CCCCCC(=O)N[C@@H](CCN)C(=O)N[C@H](C(=O)N[C@H]1CCNC(=O)[C@H]([C@@H](C)O)NC(=O)[C@H](CC(C)C)NC(=O)[C@@H](C(C)C)NC(=O)[C@H](CCN)NC(=O)[C@H](CC(C)C)NC(=O)[C@@H](Cc2ccccc2)NC1=O)[C@@H](C)CC the MIC (Escherichia coli [1]) was 16 µg/mL (≈ 14.7 µM), the MIC (Klebsiella pneumoniae) was 64 µg/mL (≈ 59 µM) and the MIC (Pseudomonas aeruginosa) was 64 µg/mL (≈ 59 µM). It also gave an MIC (Staphylococcus aureus [2]) of 32 µg/mL (≈ 29.5 µM), an MIC (Bacillus subtilis) of 4 µg/mL (≈ 3.69 µM) and an MIC (Enterococcus faecalis) of 64 µg/mL (≈ 59 µM). The HC10 (Erythrocyte) was 512 µg/mL and the hemolysis at 1 h, 256 µg/mL [8] was under 5%.

For CCCCCC(=O)N[C@@H](CCN)C(=O)N[C@H](C(=O)N[C@@H](CCN)C(=O)N[C@H](Cc1ccccc1)C(=O)N[C@@H](CC(C)C)C(=O)N[C@@H](CCN)C(=O)N[C@@H](C(=O)N[C@@H](CC(C)C)C(=O)N[C@@H](Cc1ccc(O)cc1)C(N)=O)C(C)C)[C@@H](C)CC, the MIC (Escherichia coli [1]) was 4 µg/mL (≈ 3.43 µM), the MIC (Klebsiella pneumoniae) was 8 µg/mL (≈ 6.87 µM) and the MIC (Pseudomonas aeruginosa) was 16 µg/mL (≈ 13.7 µM). The MIC (Staphylococcus aureus [2]) was 16 µg/mL (≈ 13.7 µM), the MIC (Bacillus subtilis) was 4 µg/mL (≈ 3.43 µM) and the MIC (Enterococcus faecalis) was 64 µg/mL (≈ 55 µM). The HC10 (Erythrocyte) was 512 µg/mL and the hemolysis at 1 h, 256 µg/mL [8] was under 5%.

CC[C@H](C)[C@@H]1NC(=O)[C@H](CCN)NC(=O)[C@H](CC(C)C)NC(=O)[C@H]([C@@H](C)O)NC(=O)[C@H](CC(C)C)NC(=O)[C@@H](C(C)C)NC(=O)[C@H](CCN)NC(=O)[C@H](CC(C)C)NC(=O)[C@@H](Cc2ccccc2)NC(=O)[C@H](CCN)NC1=O showed an MIC (Escherichia coli [1]) of 32 µg/mL (≈ 29.1 µM), an MIC (Klebsiella pneumoniae) of 32 µg/mL (≈ 29.1 µM) and an MIC (Pseudomonas aeruginosa) of 16 µg/mL (≈ 14.5 µM). The MIC (Staphylococcus aureus [2]) was over 128 µg/mL, the MIC (Bacillus subtilis) was 16 µg/mL (≈ 14.5 µM) and the MIC (Enterococcus faecalis) was over 128 µg/mL. The HC10 (Erythrocyte) was 512 µg/mL and the hemolysis at 1 h, 256 µg/mL [8] was under 5%.

With CC(C)CCCCC(=O)N[C@@H](CCN)C(=O)N[C@H](C(=O)N[C@@H](CCN)C(=O)N[C@H]1CCNC(=O)[C@H]([C@@H](C)O)NC(=O)[C@H](CCN)NC(=O)[C@H](CCN)NC(=O)[C@H](CC(C)C)NC(=O)[C@@H](Cc2ccccc2)NC(=O)[C@H](CCN)NC1=O)[C@@H](C)O ({Heptanoyl(6-Me)}-[Dab]T[Dab][Dab][Dab][dF]L[Dab][Dab]T; lactam 4-C) the MIC (Escherichia coli [1]) was under 1 µg/mL, the MIC (Klebsiella pneumoniae) was 4 µg/mL (≈ 3.36 µM) and the MIC (Pseudomonas aeruginosa) was 2 µg/mL (≈ 1.68 µM). It also gave an MIC (Staphylococcus aureus [2]) of 16 µg/mL (≈ 13.5 µM), an MIC (Bacillus subtilis) of 8 µg/mL (≈ 6.73 µM) and an MIC (Enterococcus faecalis) of 128 µg/mL (≈ 108 µM). For the same compound, the “fold change (FC)” value (Escherichia coli [9]) was “<=2”, the “fold change (FC)” value (Escherichia coli [10]) was “<=2” and the “fold change (FC)” value (Escherichia coli [11]) was “<=2”. The “fold change (FC)” value (Escherichia coli [12]) was “<=2”, the “fold change (FC)” value (Escherichia coli [13]) was “<=2” and the “fold change (FC)” value (Staphylococcus aureus [14]) was 4. For the same compound, the “fold change (FC)” value (Staphylococcus aureus [15]) was 4, the “fold change (FC)” value (Staphylococcus aureus [16]) was 4 and the “fold change (FC)” value (Staphylococcus aureus [17]) was 4. The “fold change (FC)” value (Staphylococcus aureus [18]) was 4.
